Assay results reported in article PMC3892729 (ACS Medicinal Chemistry Letters, 2013).
Entries after “also recorded” stand apart in the source; their conditions may differ.

Columns and labels:
human β2 adrenoceptor [1] = molecular target: T1, human β2 adrenoceptor (Homo sapiens, UniProt P07550); experiment: SPR binding to captured β2 adrenoceptor, MNG detergent; settings: for loss in activity / reduction of affinity versus parent fragment: SPR KD, MNG, I and J versus A, L versus F
human β2 adrenoceptor [2] = molecular target: T1, human β2 adrenoceptor; experiment: SPR binding to captured β2 adrenoceptor, DDM detergent; settings: read-out: SPR ka

T1 sequence (P07550 whole entry, the tested form may be a part): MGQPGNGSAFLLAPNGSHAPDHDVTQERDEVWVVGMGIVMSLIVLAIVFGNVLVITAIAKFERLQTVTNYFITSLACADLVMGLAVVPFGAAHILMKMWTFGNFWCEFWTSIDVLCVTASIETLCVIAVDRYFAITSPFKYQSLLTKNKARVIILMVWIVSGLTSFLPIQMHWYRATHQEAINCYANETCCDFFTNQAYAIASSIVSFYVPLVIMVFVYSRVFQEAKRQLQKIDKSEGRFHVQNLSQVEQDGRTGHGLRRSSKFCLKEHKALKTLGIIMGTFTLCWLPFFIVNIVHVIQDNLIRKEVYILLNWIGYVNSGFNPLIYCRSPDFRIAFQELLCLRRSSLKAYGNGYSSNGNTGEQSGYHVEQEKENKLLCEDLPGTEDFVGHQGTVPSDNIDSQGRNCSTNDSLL

| Structure (SMILES) | loss in activity / reduction of affinity versus parent fragment (human β2 adrenoceptor [1]) [fold] | further results |
| --- | --- | --- |
| Cc1ccc2nc(C(F)(F)F)cc(N3CCN(C)CC3)c2c1 [I] | 50 |  |
| c1cc(N2CCNCC2)ccn1 [L] | 400 |  |
| Cc1ccc2nc(C(F)(F)F)cc(N3CCC(F)(F)CC3)c2c1 [J] | 2000 |  |
| CC(Cc1ccc(O)cc1)NCC(O)c1cc(O)cc(O)c1 (centres unmarked) [fenoterol] |  | kon (human β2 adrenoceptor [2]): 545000 M⁻¹ s⁻¹ |
| Cc1ccc2nc(C(F)(F)F)cc(N3CCOCC3)c2c1 [K] |  | KD (result in words) (human β2 adrenoceptor [1]; MNG detergent): ablation of activity; also recorded: no binding |
